This assay addresses Cathepsin B (Homo sapiens) (UniProt P07858). Put plainly: Second-order rate constant for inactivation of human cathepsin B.
The molecule `COc1ccc([Te](Cl)(Cl)/C=C(\Cl)c2ccccc2)cc1` returned a K2 of 7900 M⁻¹ s⁻¹. Regarding `COc1ccc([Te]2(Cl)OC3(CCCCCC3)/C2=C\Cl)cc1` (centres undefined), the K2 was 1600 M⁻¹ s⁻¹.

Consider `COc1ccc([Te]2(Cl)OC3(CCCCC3)/C2=C\Cl)cc1` (centres undefined), for which the K2 came out at 36000 M⁻¹ s⁻¹. Molecule `Cl[Te]1(Cl)OCCO1` yielded a K2 of 0.037 M⁻¹ s⁻¹. Regarding `CC[N+](CC)(CC)Cc1ccccc1.ClC1=C[Te](Cl)(Cl)OC1`, the K2 was determined as 6000 M⁻¹ s⁻¹. In turn, `COc1ccc([Te]2(Cl)OC3(CCCCC3)/C2=C\Br)cc1` (centres undefined) displayed a K2 of 7700 M⁻¹ s⁻¹.

Consider `COc1ccc([Te](Cl)(Cl)/C(=C/Cl)C(C)(C)O)cc1`, for which the K2 was found to be 11000 M⁻¹ s⁻¹. Molecule `COc1ccccc1C(=O)/C=C(/c1ccccc1OC)[Te](Cl)(Cl)Cl` showed a K2 of 15000 M⁻¹ s⁻¹.

The molecule `OC(C/C(=C\Cl)[Te](Cl)(Cl)Cl)c1ccccc1` (centres undefined) returned a K2 of 12000 M⁻¹ s⁻¹.
